Assay results: PubChem BioAssay (NCI)
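Briefly, cells in 96-well plates were exposed to five compound concentrations for 48 h, and endpoints were estimated by linear interpolation. TGI is the concentration that stops growth completely.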

Legend:
Experiment in all cases: NCI tumour cell line growth inhibition, 48 h
786-0 renal = test system: 786-0 renal
A549 NSCLC = test system: A549 NSCLC
ACHN renal = test system: ACHN renal
CAKI-1 renal = test system: CAKI-1 renal
CCRF-CEM leukemia = test system: CCRF-CEM leukemia
COLO 205 colon = test system: COLO 205 colon
DLD-1 colon = test system: DLD-1 colon
DMS 114 small cell lung = test system: DMS 114 small cell lung
DMS 273 small cell lung = test system: DMS 273 small cell lung
EKVX NSCLC = test system: EKVX NSCLC
HCT-116 colon = test system: HCT-116 colon
HCT-15 colon = test system: HCT-15 colon
HL-60(TB) leukemia = test system: HL-60(TB) leukemia
HOP-18 NSCLC = test system: HOP-18 NSCLC
HOP-62 NSCLC = test system: HOP-62 NSCLC
HOP-92 NSCLC = test system: HOP-92 NSCLC
HT29 colon = test system: HT29 colon
IGROV1 ovarian = test system: IGROV1 ovarian
K-562 leukemia = test system: K-562 leukemia
KM12 colon = test system: KM12 colon
KM20L2 colon = test system: KM20L2 colon
LOX IMVI melanoma = test system: LOX IMVI melanoma
LXFL 529 NSCLC = test system: LXFL 529 NSCLC
M14 melanoma = test system: M14 melanoma
M19-MEL melanoma = test system: M19-MEL melanoma
MOLT-4 leukemia = test system: MOLT-4 leukemia
NCI-H226 lung = test system: NCI-H226 lung
NCI-H23 lung = test system: NCI-H23 lung
NCI-H460 lung = test system: NCI-H460 lung
NCI-H522 lung = test system: NCI-H522 lung
OVCAR-3 ovarian = test system: OVCAR-3 ovarian
OVCAR-4 ovarian = test system: OVCAR-4 ovarian
OVCAR-5 ovarian = test system: OVCAR-5 ovarian
OVCAR-8 ovarian = test system: OVCAR-8 ovarian
RPMI-8226 leukemia = test system: RPMI-8226 leukemia
RXF 393 renal = test system: RXF 393 renal
SF-268 CNS = test system: SF-268 CNS
SF-295 CNS = test system: SF-295 CNS
SF-539 CNS = test system: SF-539 CNS
SK-MEL-2 melanoma = test system: SK-MEL-2 melanoma
SK-MEL-28 melanoma = test system: SK-MEL-28 melanoma
SK-MEL-5 melanoma = test system: SK-MEL-5 melanoma
SK-OV-3 ovarian = test system: SK-OV-3 ovarian
SN12C renal = test system: SN12C renal
SNB-19 CNS = test system: SNB-19 CNS
SNB-75 CNS = test system: SNB-75 CNS
SNB-78 CNS = test system: SNB-78 CNS
SR leukemia = test system: SR leukemia
SW-620 colon = test system: SW-620 colon
TK-10 renal = test system: TK-10 renal
U251 CNS = test system: U251 CNS
UACC-257 melanoma = test system: UACC-257 melanoma
UACC-62 melanoma = test system: UACC-62 melanoma
UO-31 renal = test system: UO-31 renal
XF 498 CNS = test system: XF 498 CNS
A498 renal = test system: A498 renal
MALME-3M melanoma = test system: MALME-3M melanoma
HCC-2998 colon = test system: HCC-2998 colon

Measured: TGI

CC1=CC2CCC1(C)C/C2=C(/C)OC=O (configuration not stated)
not listed: A498 renal | MALME-3M melanoma | HCC-2998 colon
> 100 µM: all other assays above

O=C1OC2C(O)COC2(O)C1(O)Cc1c[nH]c2ccccc12 (configuration not stated)
not listed: ACHN renal | SK-MEL-28 melanoma | HCC-2998 colon
> 100 µM: all other assays above

Cc1cccc(C)c1NC(=O)CCC(=O)CC(=O)C(C)C
not listed: LOX IMVI melanoma
> 100 µM: all other assays above
